We go through 26 compounds from patent US20150218141A1, “SUBSTITUTED CARBAMATE COMPOUNDS” (HOFFMANN-LA ROCHE INC, priority 2012, published 2015).

Counter-ions that a name gives are not always drawn.

T1 sequence (O75762 whole entry): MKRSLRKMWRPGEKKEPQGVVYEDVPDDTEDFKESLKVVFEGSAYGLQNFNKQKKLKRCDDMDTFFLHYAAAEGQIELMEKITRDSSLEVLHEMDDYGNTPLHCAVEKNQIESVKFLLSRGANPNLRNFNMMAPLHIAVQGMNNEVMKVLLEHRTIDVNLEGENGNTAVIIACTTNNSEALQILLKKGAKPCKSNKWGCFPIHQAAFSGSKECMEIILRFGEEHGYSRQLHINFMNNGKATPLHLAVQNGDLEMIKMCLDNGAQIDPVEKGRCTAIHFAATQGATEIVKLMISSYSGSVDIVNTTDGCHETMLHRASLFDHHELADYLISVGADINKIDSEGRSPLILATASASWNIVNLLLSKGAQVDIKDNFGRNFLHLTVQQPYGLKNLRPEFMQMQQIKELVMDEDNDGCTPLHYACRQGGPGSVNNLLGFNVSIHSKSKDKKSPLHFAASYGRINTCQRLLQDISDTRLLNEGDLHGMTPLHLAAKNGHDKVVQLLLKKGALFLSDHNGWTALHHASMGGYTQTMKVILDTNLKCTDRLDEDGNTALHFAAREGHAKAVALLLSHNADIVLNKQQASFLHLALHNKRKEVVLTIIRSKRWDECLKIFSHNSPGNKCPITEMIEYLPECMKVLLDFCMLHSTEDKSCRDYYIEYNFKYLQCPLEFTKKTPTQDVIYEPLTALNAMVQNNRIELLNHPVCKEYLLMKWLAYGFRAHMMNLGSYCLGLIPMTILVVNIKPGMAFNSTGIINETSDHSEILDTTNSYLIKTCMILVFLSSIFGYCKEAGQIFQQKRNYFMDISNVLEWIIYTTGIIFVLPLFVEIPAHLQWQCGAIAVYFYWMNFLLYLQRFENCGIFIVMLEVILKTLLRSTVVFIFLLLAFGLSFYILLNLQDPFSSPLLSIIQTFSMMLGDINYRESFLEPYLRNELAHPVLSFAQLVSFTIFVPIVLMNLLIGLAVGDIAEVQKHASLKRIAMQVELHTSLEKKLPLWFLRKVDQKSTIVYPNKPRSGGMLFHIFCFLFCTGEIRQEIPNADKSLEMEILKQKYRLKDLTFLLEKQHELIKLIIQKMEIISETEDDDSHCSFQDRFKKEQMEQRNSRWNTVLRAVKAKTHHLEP

This experiment concerns the target T1, hTRPA1 (Homo sapiens, UniProt O75762).
T1 construct: host or cells: CHO-K1 Tet-On, Clone 20 (Chinese Hamster Ovary cells, inducible expression)
As to the kind of experiment: IC50 determination, dose response calcium flux (FLIPR) assay, ChanTest hTRPA1-CHO stably transfected cell line. Type of experiment: cell-based. The settings on record: CHO-K1 Tet-On hTRPA1 cells, 30' preincubation, agonist cinnamaldehyde final 100 uM. As for the experimental part: IC50 Determination of Exemplified Compounds Dose Response Assay: ChanTest hTRPA1-CHO Stably Transfected Cell Line
CHO-K1 Tet-On_HOMSA_TRPA1_Clone—20
Growth Media for CHO-K1 Tet-On_HOMSA_TRPA1_Clone—20 • Ham's F-12 with 10% tetracycline-free FBS • 1× penicillin-streptomycin • 1× glutamax • 0.01 mg/ml Blasticidin • 0.40 mg/ml Zeocin • The cell line doubling rate was ˜15 hours. […] Experiments were run at 24 hours post induction.
Plating Conditions CHOK1/TRPA1 Cells: • Harvested cells with 0.025% trypsin/EDTA. • Resuspended cells in growth media without selection antibiotics. • Measured cell density and diluted to 2.4×10^5 cells/ml in media containing 1 ug/ml Doxycycline Plate 25 ul/well into 384 well black/clear tissue culture-treated plates. • Incubated overnight at 37° C.
Reagents: • Replacement Buffer: Hank's Balanced Salt Solution, 20 mM HEPES along with 0.005% BSA and 2× Probenecid • Dye Loading Buffer: Cal-3 NW Calcium dye was prepared by dissolving the contents of one vial with […] Hank's Balanced Salt Solution containing 20 mM HEPES. • Control compounds for CHOK1/TRPA1 cells: AP-18, stock 10 mM, prepare 3.5× compound dilution in a Compound Buffer (HBSS/20 mM HEPES/0.005% BSA)—final concentration 10 uM.
Preparation of Cinnamaldehyde (Agonist Addition):
• Specific gravity=1.046 gm/cc • 1.32 gm/1.046 gm/cc=1.26 ml of stock • Add 1.74 ml DMSO=3.3 M stock • Working solution 4.5× (final 100 uM in Compound Buffer: HBSS/20 mM HEPES/0.005% BSA)
Compounds dilutions were prepared from 5 or 10 mM stock (100% DMSO): • Adjustments of volumes and concentrations were made at time of titration to reflect desired final assay concentrations. • Compounds were tested at either 20 μM three folds dilution 11 steps out or 30 μM two folds dilution 11 steps out. • 3 μl of diluted compound were transferred into Weidmann 384-well plate in duplicates side-by-side.
Compound plates were resuspended with 100 ul of HBSS/20 mM HEPES/0.005% BSA buffer (Compound Buffer):
Growth media was removed from the cell plates (20 ul) and 20 ul of the Replacement Buffer was added followed by addition of 25 ul of diluted dye. All three steps were performed using a Plate Washer BioTek 407. The plates were then incubated for 30′ at RT.
After incubation, both the cell and compound plates were brought to the FLIPR and 20 ul of the diluted compounds/antagonist/bk were transferred to the cell plates by the FLIPR. Plates were then incubated for 30′ at room temperature. After 30′ incubation, plates were returned to the FLIPR and 20 ul of 4.5× Cinnamaldehyde was added to the cell plates. During the compound addition as well as agonist addition, fluorescence readings were taken simultaneously from all 384 wells of the cell plate every 1.5 seconds. Five readings were taken to establish a stable baseline, then 20 ul of sample was rapidly (30 ul/sec) and simultaneously added to each well of the cell plate. The fluorescence was continuously monitored before, during and after sample/agonist addition for a total elapsed time of 100 seconds (compound addition) and 120 seconds (agonist addition). Responses (increase in peak fluorescence) in each well following agonist addition was determined. The initial fluorescence reading from each well, prior to ligand stimulation, was used a zero baseline value for the data from that well.
(Calcium assays in cells follow changes in intracellular calcium, usually with a dye or a luminescent sensor.)
Take `Cc1noc(C2CCCN(C[C@H](OC(=O)Nc3ccc(Cl)cc3)C(F)(F)F)C2)n1` (mixture of isomers) [Example 28, (4-Chlorophenyl)-carbamic acid (S)-2,2,2-trifluoro-1-[3-(3-methyl-[1,2,4]oxadiazol-5-yl)-piperidin-1-ylmethyl]-ethyl ester hydrochloride]: the half-maximal inhibitory concentration (IC50) stood at 1850 nM. `O=C(Nc1ccc(Cl)cc1)O[C@@H](CN1CCC[C@H](Oc2ccncc2)C1)C(F)(F)F` (racemic) [Example 22a, (4-chloro-phenyl)-carbamic acid 2,2,2-trifluoro-1-[(R)-3-(pyridin-4-yloxy)-piperidin-1-ylmethyl]-ethyl ester]: the IC50 is 4150 nM. Under `O=C(Nc1ccc(Cl)cc1)O[C@@H](CN1CCC[C@H](Oc2ccncc2)C1)C(F)(F)F` (racemic) [Example 22b, (4-chlorophenyl)-carbamic acid 2,2,2-trifluoro-1-[(S)-3-(pyridin-4-yloxy)-piperidin-1-ylmethyl]-ethyl ester] stands 1760 nM; under `O=C(C[C@@H](CN1CCC[C@H](c2cccc(C(F)(F)F)c2)C1)C(F)(F)F)Nc1ccc(Cl)cc1` (racemic) [Example 25, Racemic (S)—N-(4-Chlorophenyl)-4,4,4-trifluoro-3-[(R)-3-(3-trifluoromethylphenyl)-piperidin-1-ylmethyl]-butyramide], 135 nM.

As for `O=C(C[C@@H](CN1CCC[C@@H](c2cccc(C(F)(F)F)c2)C1)C(F)(F)F)Nc1ccc(Cl)cc1` (racemic) [Example 26, Racemic (S)—N-(4-Chloro-phenyl)-4,4,4-trifluoro-3-[(S)-3-(3-trifluoromethyl-phenyl)-piperidin-1-ylmethyl]-butyramide], the IC50 is 1400 nM. For `O=C(Nc1ccc(Cl)cc1)O[C@@H](CN1CCC[C@@H](Cc2ccccc2)C1)C(F)(F)F` (single isomer, unassigned) [Example 10], the IC50 was found to be 1340 nM.

Turning to `O=C(Nc1ccc(Cl)cc1)O[C@@H](CN1CCC[C@H](Cc2ccccc2)C1)C(F)(F)F` (single isomer, unassigned) [Example 11], the IC50 amounted to 87.2 nM.

For `O=C(Nc1ccc(Cl)cc1)O[C@@H](CN1CCC[C@@H](c2cc(C(F)(F)F)cc(C(F)(F)F)c2)C1)C(F)(F)F` (single isomer, unassigned) [Example 24], the IC50 worked out at 312 nM. Take `O=C(Nc1ccc(Cl)cc1)O[C@@H](CN1CCC[C@H](c2cccc(C(F)(F)F)c2)C1)C(F)(F)F` (single isomer, unassigned) [Example 30, hydrochloride]: the IC50 stood at 10.4 nM. In the case of `COc1ccccc1C1CCCN(CC(OC(=O)Nc2ccc(Cl)cc2)C(F)(F)F)C1` (centres unmarked) [Example 1, (4-Chlorophenyl)-carbamic acid 2,2,2-trifluoro-1-[3-(2-methoxyphenyl)-piperidin-1-ylmethyl]-ethyl ester], the IC50 is 4970 nM. As for `COc1cccc(C2CCCN(CC(OC(=O)Nc3ccc(Cl)cc3)C(F)(F)F)C2)c1` (centres unmarked) [Example 2, (4-Chlorophenyl)-carbamic acid 2,2,2-trifluoro-1-[3-(3-methoxyphenyl)-piperidin-1-ylmethyl]-ethyl ester hydrochloride], the figure is 345 nM.

With `COc1cccc([C@H]2CCCN(C[C@H](OC(=O)Nc3ccc(Cl)cc3)C(F)(F)F)C2)c1` [Example 3, (4-Chlorophenyl)-carbamic acid (S)-2,2,2-trifluoro-1-[(R)-3-(3-methoxyphenyl)-piperidin-1-ylmethyl]-ethyl ester hydrochloride], the IC50 worked out at 121 nM.

For `COc1cccc([C@@H]2CCCN(C[C@H](OC(=O)Nc3ccc(Cl)cc3)C(F)(F)F)C2)c1` [Example 4, (4-Chlorophenyl)-carbamic acid (S)-2,2,2-trifluoro-1-[(S)-3-(3-methoxyphenyl)-piperidin-1-ylmethyl]-ethyl ester hydrochloride], the IC50 amounted to 7700 nM. As for `O=C(Nc1ccc(Cl)cc1)O[C@@H](CN1CCC[C@H](c2ccccc2)C1)C(F)(F)F` [Example 5, (4-Chlorophenyl)-carbamic acid (S)-2,2,2-trifluoro-1-((R)-3-phenylpiperidin-1-ylmethyl)-ethyl ester hydrochloride], the figure is 333 nM; as for `O=C(Nc1ccc(Cl)cc1)O[C@@H](CN1CCC[C@@H](c2ccccc2)C1)C(F)(F)F` [Example 6, (4-Chlorophenyl)-carbamic acid (S)-2,2,2-trifluoro-1-((S)-3-phenylpiperidin-1-ylmethyl)-ethyl ester hydrochloride], 1500 nM; as for `O=C(Nc1ccc(Cl)cc1)O[C@H](CN1CCC[C@H](c2ccccc2)C1)C(F)(F)F` [Example 7, (4-Chlorophenyl)-carbamic acid (R)-2,2,2-trifluoro-1-((R)-3-phenylpiperidin-1-ylmethyl)-ethyl ester hydrochloride], 6400 nM. Consider `O=C(Nc1ccc(Cl)cc1)O[C@H](CN1CCC[C@@H](c2ccccc2)C1)C(F)(F)F` [Example 8, (4-Chlorophenyl)-carbamic acid (R)-2,2,2-trifluoro-1-((S)-3-phenylpiperidin-1-ylmethyl)-ethyl ester hydrochloride], for which the IC50 was 6200 nM. `O=C(Nc1ccc(Cl)cc1)OC(CN1CCCC(Cc2ccccc2)C1)C(F)(F)F` (centres unmarked) [Example 9, (4-Chlorophenyl)-carbamic acid 1-(3-benzylpiperidin-1-ylmethyl)-2,2,2-trifluoroethyl ester hydrochloride salt (1:1)]: the IC50 was 339 nM. `COc1cccc(CC2CCCN(C[C@H](OC(=O)Nc3ccc(Cl)cc3)C(F)(F)F)C2)c1` (stereo partly drawn) [Example 12, (4-Chlorophenyl)-carbamic acid (S)-2,2,2-trifluoro-1-[3-(3-methoxybenzyl)-piperidin-1-ylmethyl]-ethyl ester hydrochloride salt (1:1)]: the IC50 amounted to 550 nM. With `N#CC1CCCN(CC(OC(=O)Nc2ccc(Cl)cc2)C(F)(F)F)C1` (centres unmarked) [Example 13, (4-Chlorophenyl)-carbamic acid 1-(3-cyanopiperidin-1-ylmethyl)-2,2,2-trifluoroethyl ester], the IC50 is 277 nM. `O=C(Nc1ccc(Cl)cc1)OC(CN1CCCC(OCc2ccccc2)C1)C(F)(F)F` (centres unmarked) [Example 14, (4-Chlorophenyl)-carbamic acid 1-(3-benzyloxypiperidin-1-ylmethyl)-2,2,2-trifluoroethyl ester]: the IC50 is 137 nM. As for `O=C(Nc1ccc(Cl)cc1)OC(CN1CCCC(C(F)(F)F)C1)C(F)(F)F` (centres unmarked) [Example 15, (4-chlorophenyl)-carbamic acid 2,2,2-trifluoro-1-(3-trifluoromethylpiperidin-1-ylmethyl)-ethyl ester], the figure is 563 nM; as for `COC1CCCN(CC(OC(=O)Nc2ccc(Cl)cc2)C(F)(F)F)C1` (centres unmarked) [Example 16, (4-Chlorophenyl)-carbamic acid 2,2,2-trifluoro-1-(3-methoxypiperidin-1-ylmethyl)-ethyl ester], 4160 nM; as for `CCC1CCCN(CC(OC(=O)Nc2ccc(Cl)cc2)C(F)(F)F)C1` (centres unmarked) [Example 17, (4-Chlorophenyl)-carbamic acid 1-(3-ethylpiperidin-1-ylmethyl)-2,2,2-trifluoroethyl ester], 900 nM.

For `O=C(Nc1ccc(Cl)cc1)OC(CN1CCCC(C2CCCCC2)C1)C(F)(F)F` (centres unmarked) [Example 18, (4-Chlorophenyl)-carbamic acid 1-(3-cyclohexylpiperidin-1-ylmethyl)-2,2,2-trifluoroethyl ester], the half-inhibitory concentration (IC50) was 883 nM. For the compound `COCCCC1CCCN(CC(OC(=O)Nc2ccc(Cl)cc2)C(F)(F)F)C1` (centres unmarked) [Example 19, (4-Chlorophenyl)-carbamic acid 2,2,2-trifluoro-1-[3-(3-methoxypropyl)-piperidin-1-ylmethyl]-ethyl ester], the IC50 was 288 nM.

As a reminder, the IC50 is the concentration that gives 50% inhibition.
